Source: PubChem BioAssay AID755 (The Scripps Research Institute Molecular Screening Center, 2007)
The source made the active and inactive calls.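 How the source made its calls: active means IC50 at or below 10 micromolar; inactive means IC50 above 10 micromolar.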

molecular target: 5-hydroxytryptamine receptor 1A (Homo sapiens) (UniProt P08908); experiment: IC50 of serotonin HTR1A blockade – cell-based, CHO, Ga15 NFAT-bla reporter, dose response (AID 755); conditions: CHO 5-HT1A Ga15 NFAT-BLA reporter, FRET antagonist
Sequence (P08908 whole entry, looked up): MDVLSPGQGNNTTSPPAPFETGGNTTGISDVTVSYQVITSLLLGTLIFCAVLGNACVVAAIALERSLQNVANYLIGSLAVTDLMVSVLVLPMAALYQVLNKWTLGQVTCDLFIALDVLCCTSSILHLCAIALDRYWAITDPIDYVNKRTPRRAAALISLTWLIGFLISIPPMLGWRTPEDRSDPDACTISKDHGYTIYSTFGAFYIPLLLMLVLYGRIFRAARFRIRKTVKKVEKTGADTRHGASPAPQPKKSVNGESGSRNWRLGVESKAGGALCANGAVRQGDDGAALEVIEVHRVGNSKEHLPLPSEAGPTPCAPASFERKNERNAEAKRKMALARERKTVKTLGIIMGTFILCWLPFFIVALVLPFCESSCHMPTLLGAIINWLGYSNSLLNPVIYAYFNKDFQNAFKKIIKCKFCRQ

SMILES	IC50
COc1cc2c(cc1OC)C1=C(C#N)CC/C(=N\S(=O)(=O)c3ccccc3)N1CC2	> 40 µM (inactive)
CSc1ccccc1N=CC1=C(O)CC(C)(C)CC1=O	1.88 µM

More lines, now with the values ahead:

IC50	SMILES
> 40 µM (inactive)	COc1ccc(N2C(=O)CC(NCc3ccncc3)C2=O)cc1 (stereo not given)
7.33 µM	CC(=O)Oc1ccc(N2C(=O)C3C(C2=O)C2(C)C=CC3(C)O2)cc1 (stereo not given)
inactive	O=C1C2C3C=CC(CO)(O3)C2C(=O)N1c1ccc(-c2ccccc2)cc1 (stereo not given)
